Measured values published in patent publication US8759537B2, “3H-imidazo [4, 5-C] pyridine-6-carboxamides as anti-inflammatory agents” (Boehringer Ingelheim International GmbH, priority 2010, dated 2014).

Legend:
mPGES-1 [1] = target: T1, mPGES-1 (Homo sapiens (Human), UniProt O14684); assay: mPGES-1 enzyme assay (HTRF detection of PGE2); type: biochemical
Procedure: Microsomes from Rosetta E. coli bacteria expressing recombinant human mPGES-1 can be derived as described below:
Inoculate 5 ml LB with Ampicilin (50 μg/ml) and Chloramphenicol (34 μg/ml) with bacteria from freeze culture. Incubate 8 h at 37° C. with 200 rpm. Thereafter, inoculate 500-1000 ml LB containing Amp and Chloro with the 5 ml on culture and grow to OD640 of 0.8-1.0. Chill the culture to +4° C. before induction. Induce the culture with IPTG at a final concentration of 400 μM. Express the protein at room temp 18-23° C. with 200 rpm shaking over night.
The following steps can be performed on the following day: • 1. Spin down the cells in 250 ml centrifuge flasks for 15 min at 7000 rpm (Beckmann Coulte Avanti J-E centrifuge) • 2. Dissolve the pellet from 250 ml culture in 12.5 ml homogenization buffer • 3. (15 mM Tris-HCL pH8, 1 mM EDTA pH8, […], 2.5 mM GSH, 1 Tablet Protease inhibitor per 50 ml buffer) • 4. […] Add 2.5 ml MgCl2 (100 mM) and DNase 12.5 μl (0.8 mg/ml) and incubate on ice for 30 min • 6. Spin down the bacteria debris and save the supernatant, 7000 rpm for 15 min • 7. Isolate the protein containing membranes in the supernatant by ultracentrifugation 120000×g for 2 hour at 4° C. (Sorvall T880 rotor). • 8. Discard the supernatant and dissolve the pellet in 20 mM Potassium phosphate buffer pH7.4 (KH2PO4 and K2HPO4) buffer by sonication (5×10 s, 30% of a 50 W sonifier) and aliquot the enzyme and store aliquots at −80° C.
Before each experiment is performed an aliquot of the enzyme is thawed and it can then be dissolved in 0.1 M Potassium phosphate buffer pH7.4 (KH2PO4 and K2HPO4) buffer containing 2.5 mM GSH.
The aim of this assay is to determine the affinity of a test compound for the mPGES-1 enzyme.
47 μl of recombinant human mPGES-1 (˜0.5 μg protein/well) containing microsomal suspension in a buffer containing GSH, (2.5 mmol/L L-Glutathione reduced, dissolved in 0.1 mol/L Phosphat Buffer pH 7.4) is dispensed in a 384-well plate and thereafter 1 μl of the test compound(s) is/are added and incubated for 25 minutes at room temperature. The enzyme reaction is started by the addition of 2 ul PGH2 (final conc. 2 μM) dissolved in water-free Diglyme. After 60 seconds the reaction is terminated by addition of a stop solution containing FeCl2 (10 μL 0.074 mol/l FeCl2). The samples are diluted between 1:25 in PBS (Phosphate Buffered Saline). 10 μl of the diluted samples are transferred to 384-well low volume plate. In order to quantify the amount of PGE2 that has been formed, a homogenous time resolved fluorescent (HTRF) detecting of PGE2 has been performed using a commercially available kit from Cisbio according to the manufactures recommendation. […] Briefly, the diluted samples are mixed with 5 μl PGE2-d2 conjungate and 5 μl anti-PGE2 cryptate conjungate. After an incubation period of the plates over night, the fluorescence is measured by the use of an appropriate microplate reader.
The quantification plate contains also wells with different concentrations of PGE2 as calibration curve for the calculation of the PGE2 concentrations from the HTRF ratio values.
From all mPGES enzyme assay the background is subtracted and the IC50 is calculated over a nonlinear regression with conventional software.

mPGES-1 [2] = target: T1, mPGES-1; assay: A549 cell-based assay (PGE2 formation, IL-1β stimulated, 50% human serum); conditions: A549 cells
Procedure, shortened: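 Human A549 cells (7000 cells/well) in F-12 medium with 50% human serum, with IL-1β stimulation. IC50 from 6-8 point titrations.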

[3] = recombinant human mPGES-1 microsomes, PGH2 2 μM, read-out: mPGES-1 inhibitory effect in the enzyme assay, IC50
[4] = IL-1β 5 ng/ml, read-out: mPGES-1 inhibitory effect in the cell assay, IC50
[5] = Table C comparison of selected benzimidazoles, read-out: Enzym IC50
[6] = Table C comparison of selected benzimidazoles, read-out: Cell IC50

T1 sequence (O14684 whole entry): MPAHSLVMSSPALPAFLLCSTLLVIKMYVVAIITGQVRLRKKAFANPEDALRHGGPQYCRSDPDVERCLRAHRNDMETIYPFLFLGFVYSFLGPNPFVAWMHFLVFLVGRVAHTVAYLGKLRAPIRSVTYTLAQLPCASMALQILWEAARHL

Row | Structure (SMILES) | IC50 (mPGES-1 [1]; [3]) | IC50 (mPGES-1 [2]; [4]) | IC50 (mPGES-1 [1]; [5]) | IC50 (mPGES-1 [2]; [6])
1 | Cc1ccc(Cl)cc1NC(=O)c1cc2nc(Nc3c(Cl)ccc(CNC(=O)C(C)(C)C)c3Cl)n(C)c2cc1OCC(F)F [Example 54] | 3 nM | < 1 nM |  | 
2 | Cn1c(Nc2c(Cl)ccc(CNC(=O)C(C)(C)C)c2Cl)nc2cc(C(=O)NCCc3ccccc3)c(OCC(F)F)cc21 [Example 57] | 4 nM | < 1 nM |  | 
3 | Cn1c(Nc2c(Cl)ccc(CNC(=O)C(C)(C)C)c2Cl)nc2cc(C(=O)Nc3ccc(Cl)cc3Cl)c(OCC(F)F)cc21 [Example 60, N-(2,4-dichloro-phenyl)-2-{2,6-dichloro-3-[(2,2-dimethyl-propionylamino)-methyl]-phenylamino}-6-(2,2-difluoro-ethoxy)-1-methyl-1H-benzimidazole-5-carboxylic acid amide] | 3 nM | < 1 nM |  | 
4 | Cn1c(Nc2c(Cl)ccc(CNC(=O)C(C)(C)C)c2Cl)nc2cc(C(=O)Nc3ccc(C(F)(F)F)cn3)c(OCC(F)F)cc21 [Example 61] | 4 nM | < 1 nM |  | 
5 | Cc1cc(C#N)c(NC(=O)c2cc3nc(Nc4c(Cl)ccc(CNC(=O)C(C)(C)C)c4Cl)n(C)c3cc2OCC(F)F)s1 [Example 62] | 2 nM | 1 nM |  | 
6 | Cc1cc(Cl)cnc1NC(=O)c1cc2nc(Nc3c(Cl)ccc(CNC(=O)C(C)(C)C)c3Cl)n(C)c2cc1OCC(F)F [Example 63] | 3 nM | 1 nM |  | 
7 | Cn1c(Nc2c(Cl)ccc(CNC(=O)C(C)(C)C)c2Cl)nc2cc(C(=O)Nc3ccncc3Cl)c(OCC(F)F)cc21 [Example 65] | 4 nM | 6 nM |  | 
8 | Cn1c(Nc2c(Cl)ccc(CNC(=O)C(C)(C)C)c2Cl)nc2cc(C(=O)N[C@H]3CC[C@H](C(F)F)CC3)c(OCC(F)F)cc21 [Example 68] | 2 nM | 1 nM |  | 
9 | Cn1c(Nc2c(F)ccc(CNC(=O)C(C)(C)C)c2F)nc2cc(C(=O)Nc3cc(F)cc(Cl)c3)c(OCC(F)F)cc21 [Example 69] | 2 nM | 3 nM |  | 
10 | Cn1c(Nc2c(Cl)ccc(CNC(=O)C(C)(C)C)c2Cl)nc2cc(C(=O)Nc3nc(C(F)(F)F)cs3)c(F)cc21 [Example 70] | 4 nM | 16 nM |  | 
11 | Cc1ccc(CNC(=O)C(C)(C)C)c(C)c1Nc1nc2cc(C(=O)Nc3ccc(F)c(Cl)c3)c(OCC(F)F)cc2n1C [Example 71] | 2 nM | 16 nM |  | 
12 | Cn1c(Nc2c(Cl)ccc(CNC(=O)C(C)(C)C)c2Cl)nc2cc(C(=O)Nc3ccc(F)c(F)c3)c(OCC(F)F)cc21 [Example 74] | 9 nM | 1 nM |  | 
13 | Cn1c(Nc2c(Cl)ccc(CNC(=O)C(C)(C)C)c2F)nc2cc(C(=O)N[C@H]3CC[C@H](C(F)(F)F)CC3)c(OCC(F)F)cc21 [Example 76] | 3 nM | 2 nM |  | 
14 | Cn1c(Nc2c(Cl)ccc(CNC(=O)C(C)(C)C)c2F)nc2cc(C(=O)NCC(F)(F)F)c(OCC(F)F)cc21 [Example 77] | 2 nM | 12 nM |  | 
15 | Cn1c(Nc2c(Cl)ccc(CNC(=O)N3CC(F)(F)C3)c2Cl)nc2cc(C(=O)N[C@H]3CC[C@H](C(F)(F)F)CC3)c(OCC(F)F)cc21 [Example 80, N-(trans-4-Trifluoromethyl-cyclohex-1-yl)-2-{2,6-dichloro-3-[(3,3-difluoro-azetidine-1-carbonylamino)-methyl]-phenylamino}-6-(2,2-difluoroethoxy)-1-methyl-1H-benzimidazole-5-carboxylic acid amide] | 1 nM | 7 nM |  | 
16 | Cn1c(Nc2c(Cl)ccc(CNC(=O)N3CCC(F)(F)C3)c2Cl)nc2cc(C(=O)N[C@H]3CC[C@H](C(F)(F)F)CC3)c(OCC(F)F)cc21 [Example 81] | 3 nM | 50 nM |  | 
17 | CC1CCCN1C(=O)NCc1ccc(Cl)c(Nc2nc3cc(C(=O)N[C@H]4CC[C@H](C(F)(F)F)CC4)c(OCC(F)F)cc3n2C)c1Cl (stereo partly shown) [Example 82] | 1 nM | 43 nM |  | 
18 | Cn1c(Nc2c(Cl)ccc(CNC(=O)C(C)(C)C)c2Cl)nc2cc(C(=O)Nc3c(F)ccc(F)c3F)c(OCC(F)F)cc21 [Example 85] | 1 nM | 4 nM |  | 
19 | Cn1c(Nc2c(Cl)ccc(CNC(=O)C(C)(C)C)c2Cl)nc2cc(C(=O)Nc3ccc(F)c(Cl)c3)c(OC3CCOC3)cc21 (stereo not shown) [Example 179] | 1 nM | < 1 nM |  | 
20 | Cn1c(Nc2cc(CNC(=O)C(C)(C)C)ccc2Cl)nc2cc(C(=O)N[C@H]3CC[C@H](C(F)(F)F)CC3)c(OCC(F)F)cc21 [[drawing 47] of PCT/EP2010/052799, reference compound] |  |  | 3 nM | 17 nM
21 | Cn1c(Nc2c(Cl)ccc(CNC(=O)C(C)(C)C)c2Cl)nc2cc(C(=O)Nc3ccc(Br)cc3)c(OCC(F)F)cc21 [drawing 44] |  |  | 2 nM | < 1 nM
22 | Cn1c(Nc2c(Cl)ccc(CNC(=O)C(C)(C)C)c2Cl)nc2cc(C(=O)N[C@H]3CC[C@H](C(F)(F)F)CC3)c(OCC(F)F)cc21 [drawing 46] |  |  | 2 nM | < 1 nM
23 | Cn1c(Nc2c(Cl)ccc(CNC(=O)C(C)(C)C)c2Cl)nc2cc(C(=O)NCC3CC3)c(OCC(F)F)cc21 [drawing 48] |  |  | 4 nM | 1 nM

More lines, now with the values ahead:

Row | IC50 (mPGES-1 [1]; [3]) | IC50 (mPGES-1 [2]; [4]) | IC50 (mPGES-1 [1]; [5]) | IC50 (mPGES-1 [2]; [6]) | Structure (SMILES)
24 | 4 nM | < 1 nM |  |  | Cn1c(Nc2c(Cl)ccc(CNC(=O)C(C)(C)C)c2Cl)nc2cc(C(=O)NC3CC4CCC3C4)c(OCC(F)F)cc21 (stereo not shown) [Example 55]
25 | 4 nM | 3 nM |  |  | CCNC(=O)c1cc2nc(Nc3c(Cl)ccc(CNC(=O)C(C)(C)C)c3Cl)n(C)c2cc1OCC(F)F [Example 56]
26 | 3 nM | 2 nM |  |  | Cn1c(Nc2c(Cl)ccc(CNC(=O)C(C)(C)C)c2Cl)nc2cc(C(=O)NCC(F)(F)F)c(OCC(F)F)cc21 [Example 58]
27 | 4 nM | < 1 nM |  |  | Cn1c(Nc2c(Cl)ccc(CNC(=O)C(C)(C)C)c2Cl)nc2cc(C(=O)Nc3ccc4c(c3)CCC4)c(OCC(F)F)cc21 [Example 59]
28 | 2 nM | < 1 nM |  |  | Cn1c(Nc2c(Cl)ccc(CNC(=O)C(C)(C)C)c2Cl)nc2cc(C(=O)NC3CCC(F)(F)CC3)c(OCC(F)F)cc21 [Example 64]
29 | 4 nM | < 1 nM |  |  | Cn1c(Nc2c(Cl)ccc(CNC(=O)C(C)(C)C)c2Cl)nc2cc(C(=O)Nc3cccc(C(F)(F)F)n3)c(OCC(F)F)cc21 [Example 66]
30 | 2 nM | 1 nM |  |  | Cn1c(Nc2c(Cl)ccc(CNC(=O)C(C)(C)C)c2Cl)nc2cc(C(=O)Nc3cc(C(F)(F)F)ccn3)c(OCC(F)F)cc21 [Example 67]
31 | 1 nM | 9 nM |  |  | Cn1c(Nc2c(F)ccc(CNC(=O)C(C)(C)C)c2F)nc2cc(C(=O)Nc3cccc(F)c3)c(OCC(F)F)cc21 [Example 72]
32 | 2 nM | 1 nM |  |  | Cn1c(Nc2c(Cl)ccc(CNC(=O)C(C)(C)C)c2Cl)nc2cc(C(=O)Nc3cccc(Cl)c3F)c(OCC(F)F)cc21 [Example 73]
33 | 2 nM | < 1 nM |  |  | Cn1c(Nc2c(Cl)ccc(CNC(=O)C(C)(C)C)c2F)nc2cc(C(=O)Nc3ccc(F)c(Cl)c3)c(OCC(F)F)cc21 [Example 75, N-(3-Chloro-4-fluoro-phenyl)-2-{6-chloro-2-fluoro-3-[(2,2-dimethyl-propionylamino)-methyl]-phenylamino}-6-(2,2-difluoroethoxy)-1-methyl-1H-benzimidazole-5-carboxylic acid amide]
34 | 1 nM | < 1 nM |  |  | COCCOc1cc2c(cc1C(=O)Nc1ccc(F)c(Cl)c1)nc(Nc1c(Cl)ccc(CNC(=O)C(C)(C)C)c1Cl)n2C [Example 178]
35 | 2 nM | 93 nM |  |  | CC(C)(C)C(=O)NCc1ccc(Cl)c(Nc2nc3cc(C(=O)N[C@H]4CC[C@H](C(F)(F)F)CC4)c(F)c(F)c3[nH]2)c1Cl [Example 180]
